The text below walks through data of patent US9487504B2, “Imidazolyl analogs as syk inhibitors” (Merck Sharp & Dohme Corp., priority 2012, dated 2016).

A value given as a limit tells only on which side of the number the result lay.

The first assay has as its target T1, recombinant human GST-Syk (Homo sapiens, UniProt P43405).
T1 construct: purchased Carna Biosciences 08-176
As to the kind of experiment: Homogeneous Time-Resolved Fluorescence (HTRF) assay for the recombinant human Syk enzyme. The format is biochemical. As to conditions: ATP 25 μM, 10-dose titration, read-out: rhSYK Activity. How it is done:
Syk inhibition may be determined using the following assay protocol:
Homogeneous Time-Resolved Fluorescence (HTRF) Assay for the Recombinant Human Syk Enzyme:
A recombinant GST-hSyk fusion protein was used to measure potency of compounds to inhibit human Syk activity. The recombinant human GST-Syk (Carna Biosciences #08-176) ([…]) was incubated with various concentrations of the inhibitor diluted in DMSO (0.1% final concentration) for 10 minutes at room temperature in 15 mM Tris-HCl (pH 7.5), 0.01% tween 20, 2 mM DTT in 384 well plate format. To initiate the reaction the biotinylated substrate peptide (250 nM final concentration) that contains the phosphorylation site for Syk was added with magnesium (5 mM final concentration) and ATP (25 μM final concentration). Final volume of the reaction was 10 μL. Phosphorylation of the peptide was allowed to proceed for 45 minutes at room temperature. To quench the reaction and detect the phosphorylated product, 2 nM of a Europium-anti-phosphotyrosine antibody (Perkin Elmer #AD0161) and 70 nM SA-APC (Perkin-Elmer #CR130-100) were added together in 15 mM Tris pH 7.5, 40 mM EDTA, 0.01% tween 20. Final volume of the quenching solution was 10 μL. The resulting HTRF signal was measured after 30 minutes on an EnVision (Perkin-Elmer) reader using a time-resolved fluorescence protocol. IC50 was determined following 10-dose titration (10 μM to 0.508 nM) and four parameter logistic curve fitting using the Merck Assay Data Analyzer. The rhSyk activity (IC50) is expressed as +++ (100 nM or less), ++ (between 100 and 1000 nM), + (between 1 and 10 μM).
(TR-FRET usually uses a lanthanide donor and a delayed reading to cut background.)
As for `Cc1cc(Nc2cc(C)c(F)cn2)nc(-n2cnc([C@]3(O)CC[C@@H](OC(=O)c4ccccc4)CC3)c2)c1` [Example 48, cis-4-(1-{6-[(5-fluoro-4-methylpyridin-2-yl)amino]-4-methylpyridin-2-yl}-1H-imidazol-4-yl)-4-hydroxycyclohexyl benzoate], the IC50 is no more than 100 nM.
Take `Cc1cc(Nc2cc(C)c(Cl)cn2)nc(-n2cnc([C@]3(O)CC[C@@H](OC(=O)c4ccccc4)CC3)c2)c1` [Example 49, cis-4-(1-{6-[(5-chloro-4-methylpyridin-2-yl)amino]-4-methylpyridin-2-yl}-1H-imidazol-4-yl)-4-hydroxycyclohexyl benzoate]: the IC50 lay within 100 to 1000 nM.
With `Cc1cc(Nc2cc(C3CC3)ccn2)nc(-n2cnc([C@]3(O)CC[C@@H](OC(=O)c4ccccc4)CC3)c2)c1` [Example 50, cis-4-(1-{6-[(4-cyclopropylpyridin-2-yl)amino]-4-methylpyridin-2-yl}-1H-imidazol-4-yl)-4-hydroxycyclohexyl benzoate], the IC50 was no more than 100 nM.
On the same count and under the same terms, with `Cc1ccnc(Nc2cc(C)cc(-n3cnc([C@]4(O)CC[C@@H](OC(=O)c5ccccc5)CC4)c3)n2)c1` [Example 51, cis-4-hydroxy-4-(1-{4-methyl-6-[(4-methylpyridin-2-yl)amino]pyridin-2-yl}-1H-imidazol-4-yl)cyclohexyl benzoate] the figure was no more than 100 nM.
Still for that read-out and setting: as for `Cc1cc(Nc2cc(C(C)(C)C)ccn2)nc(-n2cnc([C@]3(O)CC[C@@H](OC(=O)c4ccccc4)CC3)c2)c1` [Example 52, cis-4-(1-{6-[(4-tert-butylpyridin-2-yl)amino]-4-methylpyridin-2-yl}-1H-imidazol-4-yl)-4-hydroxycyclohexyl benzoate], the figure is no more than 100 nM; as for `Cc1cc(Nc2nccc(C(F)(F)F)n2)cc(-n2cnc(C3(O)CCC(=O)CC3)c2)c1` [Example 53, 4-hydroxy-4-[1-(3-methyl-5-{[4-(trifluoromethyl)pyrimidin-2-yl]amino}phenyl)-1H-imidazol-4-yl]cyclohexanone], no more than 100 nM.
Regarding `Cc1cc(Nc2nccc(C(F)(F)F)n2)cc(-n2cnc([C@]3(O)CC[C@H](O)[C@@H](C)C3)c2)c1` [Example 54, (1S,3S,4S)-3-methyl-1-[1-(3-methyl-5-{[4-(trifluoromethyl)pyrimidin-2-yl]amino}phenyl)-1H-imidazol-4-yl]cyclohexane-1,4-diol], the IC50 is no more than 100 nM.
For the molecule `Cc1cc(Nc2nccc(C(F)(F)F)n2)cc(-n2cnc([C@@]3(O)CC[C@H](O)[C@@H](C)C3)c2)c1` [Example 55, (1R,3S,4S)-3-methyl-1-[1-(3-methyl-5-{[4-(trifluoromethyl)pyrimidin-2-yl]amino}phenyl)-1H-imidazol-4-yl]cyclohexane-1,4-diol], the IC50 is no more than 100 nM.
As for `Cc1cc(Nc2nccc(C(F)(F)F)n2)cc(-n2cnc([C@]3(O)CC[C@@H](O)[C@@H](C)C3)c2)c1` [Example 56, (1S,3S,4R)-3-methyl-1-[1-(3-methyl-5-{[4-(trifluoromethyl)pyrimidin-2-yl]amino}phenyl)-1H-imidazol-4-yl]cyclohexane-1,4-diol], the IC50 was no more than 100 nM.
`Cc1cc(Nc2ncc(F)c(C)n2)cc(-n2cnc([C@]3(O)CC[C@@H](O)CC3)c2)c1` [Example 57, cis-1-(1-{3-[(5-fluoro-4-methylpyrimidin-2-yl)amino]-5-methylphenyl}-1H-imidazol-4-yl)cyclohexane-1,4-diol]: the IC50 is no more than 100 nM.
In the case of `Cc1cc(Nc2ncc(F)c(C)n2)cc(-n2cnc([C@]3(O)CC[C@@H](OC(=O)c4ccccc4)CC3)c2)c1` [Example 58, cis-4-(1-{3-[(5-fluoro-4-methylpyrimidin-2-yl)amino]-5-methylphenyl}-1H-imidazol-4-yl)-4-hydroxycyclohexyl benzoate], the IC50 is 100 to 1000 nM.
For `Cc1cc(Nc2ncc(F)c(C3CC3)n2)cc(-n2cnc([C@]3(O)CC[C@@H](O)CC3)c2)c1` [Example 59, cis-1-(1-{3-[(4-cyclopropyl-5-fluoropyrimidin-2-yl)amino]-5-methylphenyl}-1H-imidazol-4-yl)cyclohexane-1,4-diol], the IC50 was no more than 100 nM.
For the molecule `Cc1cc(Nc2ncc(F)c(C3CC3)n2)cc(-n2cnc([C@]3(O)CC[C@@H](OC(=O)c4ccccc4)CC3)c2)c1` [Example 60, cis-4-(1-{3-[(4-cyclopropyl-5-fluoropyrimidin-2-yl)amino]-5-methylphenyl}-1H-imidazol-4-yl)-4-hydroxycyclohexyl benzoate], the IC50 was in the range of 100 to 1000 nM.
`Cc1cc(Nc2cc(C(F)(F)F)ccn2)nc(-n2cnc([C@]3(O)CC[C@H](O)CC3)c2)c1` [Example 61, trans-1-[1-(4-methyl-6-{[4-(trifluoromethyl)pyridin-2-yl]amino}pyridin-2-yl)-1H-imidazol-4-yl]cyclohexane-1,4-diol]: the IC50 was no more than 100 nM.
On to `Cc1cc(Nc2cc(C(F)(F)F)ccn2)nc(-n2cnc([C@]3(O)CC[C@@H](O)CC3)c2)c1` [Example 62, cis-1-[1-(4-methyl-6-{[4-(trifluoromethyl)pyridin-2-yl]amino}pyridin-2-yl)-1H-imidazol-4-yl]cyclohexane-1,4-diol], for which the IC50 was no more than 100 nM.
Turning to `Cc1cc(Nc2cc(C(F)(F)F)ccn2)nc(-n2cnc([C@]3(O)CC[C@H](OC(=O)c4ccccc4)CC3)c2)c1` [Example 63, trans-4-hydroxy-4-[1-(4-methyl-6-{[4-(trifluoromethyl)pyridin-2-yl]amino}pyridin-2-yl)-1H-imidazol-4-yl]cyclohexyl benzoate], the IC50 is no more than 100 nM.
As to `Cc1cc(Nc2cc(C(F)(F)F)ccn2)nc(-n2cnc([C@]3(O)CC[C@@H](OC(=O)c4ccccc4)CC3)c2)c1` [Example 64, cis-4-hydroxy-4-[1-(4-methyl-6-{[4-(trifluoromethyl)pyridin-2-yl]amino}pyridin-2-yl)-1H-imidazol-4-yl]cyclohexyl benzoate], the IC50 was no more than 100 nM.
For `Cc1cc(Nc2nccc(C(F)(F)F)n2)cc(-n2cnc(C3(O)CCC(O)CC3)c2)c1` (stereo not drawn) [Example 65, trans-1-[1-(3-methyl-5-{[4-(trifluoromethyl)pyrimidin-2-yl]amino}phenyl)-1H-imidazol-4-yl]cyclohexane-1,4-diol], the IC50 is no more than 100 nM.
Consider `Cc1cc(Nc2nccc(C(F)(F)F)n2)cc(-n2cnc([C@]3(O)CC[C@H](OC(=O)c4ccccc4)CC3)c2)c1` [Example 66, trans-4-hydroxy-4-[1-(3-methyl-5-{[4-(trifluoromethyl)pyrimidin-2-yl]amino}phenyl)-1H-imidazol-4-yl]cyclohexyl benzoate], for which the IC50 lay in the range of 100 to 1000 nM.
As to `Cc1cc(Nc2nccc(C(F)(F)F)n2)cc(-n2cc(C(=O)O)nc2C)c1` [Example 67, 2-Methyl-1-(3-methyl-5-{[4-(trifluoromethyl)pyrimidin-2-yl]amino}phenyl)-1H-imidazole-4-carboxylic acid], the IC50 is no more than 100 nM.
As for `Cc1cc(Nc2nccc(C(F)(F)F)n2)cc(-n2cc(C(C)(C)O)nc2C)c1` [Example 68, 2-[2-Methyl-1-(3-methyl-5-{[4-(trifluoromethyl)pyrimidin-2-yl]amino}phenyl)-1H-imidazol-4-yl]propan-2-ol], the IC50 fell in the range of 100 to 1000 nM.
On to `COC(=O)c1cn(-c2cccc(Nc3cc(Cl)ccn3)n2)cn1` [Example 69, Methyl 1-{6-[(4-chloropyridin-2-yl)amino]pyridin-2-yl}-1H-imidazole-4-carboxylate], for which the IC50 was in the range of 100 to 1000 nM.
On the same count and under the same terms, with `O=C(c1cn(-c2cccc(Nc3nccc(C(F)(F)F)n3)c2)cn1)N1CCCC1` [Example 70, Pyrrolidin-1-yl[1-(3-{[4-(trifluoromethyl)pyrimidin-2-yl]amino}phenyl)-1H-imidazol-4-yl]methanone] the figure was 100 to 1000 nM.
Same read-out and setting: as for `Cc1cc(Nc2nccc(C(F)(F)F)n2)cc(-n2cnc(-c3ccc(C(=O)O)cc3)c2)c1` [Example 71, 4-[1-(3-methyl-5-{[4-(trifluoromethyl)pyrimidin-2-yl]amino}-phenyl)-1H-imidazol-4-yl]benzoic acid], the figure is no more than 100 nM.
Regarding `Cc1cc(Nc2nccc(C)n2)cc(-n2cnc3cc(C(=O)O)ccc32)c1` [Example 72, 1-{3-methyl-5-[(4-methylpyrimidin-2-yl)amino]phenyl}-1H-benzimidazole-5-carboxylic acid], the IC50 is 100 to 1000 nM.
Turning to `COC(=O)c1ccc2c(c1)ncn2-c1cc(C)cc(Nc2nccc(C)n2)c1` [Example 73, Methyl 1-{3-methyl-5-[(4-methyl-pyrimidin-2-yl)amino]phenyl}-1H-benzimidazole-5-carboxylate], the IC50 was no more than 100 nM.
For `Cc1cc(Nc2cc(C(F)(F)F)ccn2)nc(-n2cnc(CCC(=O)O)c2)c1` [Example 74, 3-[1-(4-methyl-6-{[4-(trifluoromethyl)-pyridin-2-yl]amino}-pyridin-2-yl)-1H-imidazol-4-yl]-propanoic acid], the IC50 was in the range of 100 to 1000 nM.
Consider `Cc1cc(Nc2nccc(C3CC3)n2)cc(-n2cnc(CCC(=O)O)c2)c1` [Example 75, 3-(1-{3-[(4-cyclopropylpyrimidin-2-yl)amino]-5-methylphenyl}-1H-imidazol-4-yl)propanoic acid], for which the IC50 was no more than 100 nM.

Staying with this assay, now noted: ATP 25 μM, 10-dose titration, read-out: rhSYK IC50.
Consider `Cc1cc(Nc2cc(C(F)(F)F)ccn2)nc(-n2cnc([C@]3(O)CC[C@@H](O)CC3)c2)c1` [Example 62, cis-1-[1-(4-methyl-6-{[4-(trifluoromethyl)pyridin-2-yl]amino}pyridin-2-yl)-1H-imidazol-4-yl]cyclohexane-1,4-diol], for which the IC50 was found to be 1.36 nM.
On the same count and under the same terms, with `Cc1cc(Nc2nccc(C(F)(F)F)n2)cc(-n2cnc(-c3ccc(C(=O)O)cc3)c2)c1` [Example 71, 4-[1-(3-methyl-5-{[4-(trifluoromethyl)pyrimidin-2-yl]amino}-phenyl)-1H-imidazol-4-yl]benzoic acid] the figure was 1.68 nM.
